# Laboratory results taken from article PMC11054638, “Transport of Non-Steroidal Anti-Inflammatory Drugs across an Oral Mucosa Epithelium In Vitro Model” (Pharmaceutics, 2024).
# How the values were obtained:
# [1] = Transport study across oral mucosa Transwell model, apical to basolateral, 240 min; settings: human
# Method: (§1) As soon as cells reached confluency, cultivation was switched from submerged to airlift and 1% Human Keratinocytes Growth Supplements (HKGS, Gibco, Thermofisher, Vienna, Austria, S0015) was added to the cultivation media on the basolateral compartment. Media were changed every 2–3 days until the day of experiment on day 29. Cells from passage 14–36 were used for experiments. Transepithelial electric resistance (TEER) was measured on day of experiment, as described in detail previously.
# (§2) Solutions were diluted to 10 µM (carboxyfluorescein) or 100 µM in DMEM on day of experiments.
# (§3) First, TEER was measured in cultivation media on the day of experiment. Afterwards, cells and blanks were washed twice with DMEM on the apical (300 µL) and basolateral (900 µL) compartments and selected cells and blanks were treated with DMEM with or without 100 µM probenecid or verapamil on the apical and basolateral side at 37 °C for 30 min. […] To cells which were pre-incubated with probenecid or verapamil, 100 µM probenecid or verapamil was applied apically as well. DMSO content was adapted for cells with no inhibitors, and DMSO and dd-H2O content was adjusted in the basolateral compartment as well in order to apply the same vehicle concentrations on the apical and basolateral compartment. […] Subsequently, duplicates of apical sample were collected, and samples were frozen at −80 °C until further analysis with High-Performance Liquid Chromatography (HPLC).
# (§4) Peaks were quantified using the software Chromeleon Version 7.2.6, and corresponding mili absorbance unit × time [mAU × min] values were used for data analysis.
# (§5) Mean values of relative fluorescence unit (RFU) or detected area [mAU × min] were used for calculation. For the first timepoint, the clearance [µL] for the detected area was calculated as shown in the formula below (1a), with Abasot1 as the measured area [mAU × min] at the first time point of the basolateral sample, Vbaso as the basolateral volume [µL] and Astock as the area measured for the applied stock solution. […] Clearance [µL] for carboxyfluorescein was calculated with the same formulas using RFU. (1a) Clearance=Abasot1×Vbaso/AStock (1b) Clearancetn=Abasotn×Vbaso/AStock−∑(Abasotn−1 ×3− Abasot1 ×3)
# (§6) Cleared volume [µL] was calculated by plotting the sum of clearance at all time points over time [min]. The resulting slope PS [µL/min] was calculated inversely. For calculation of the PScell, the inverse PS blanks were subtracted, as shown below in Formula (2). (2) 1/PScell=1/PSall−1/PSblank
# (§7) The final permeability coefficient is calculated by dividing the inverse PScell by the area of the ThinCerts (0.336 cm^2) and multiplying by a conversion factor to give the permeability coefficient as µm/min.
# [2] = test system: oral mucosa epithelium in vitro model based on human cell line TR146; assay: as above; settings: for Permeability coefficient without inflammation and inhibitor: Table S3; for increase of permeability coefficient with probenecid compared to no inhibitor / increase of permeability coefficient with verapamil compared to no inhibitor / cumulated concentration of NSAID in the basolateral compartment: 100 µM; for cumulated concentration of NSAID in the basolateral compartment: 4 h
# Method: as §1, §2, §3, §4, §5, §6, §7
# [3] = CXlogD at pH 7.4 ref https://ebi.ac.uk (02.04.2024); cited from earlier work
# MRP4 (ABCC4) = settings: cited from earlier work
# TR146 cell layers [4] = settings: human, not told, 4 h
# TR146 cell layers [5] = assay: Carboxyfluorescein permeability assay (2 h) after 48 h inflammation treatment; assay type: in vitro ADME, human
# Method: The resulting slope PS [µL/min] was calculated inversely. […] (2) 1/PScell=1/PSall−1/PSblank
# ThinCerts® were seeded with cells as described above. Stock solutions of tumour necrosis factor α (TNF-α, Sigma-Alrich, H8916, 10 µg), Interleukin-1ß (IL-1ß, PeproTech, 200-01B, 2 µg) and Interferon-γ (IFN-γ, PeproTech, Vienna, Austria, 300-02, 20 µg) were prepared with Dulbecco’s Phosphate Buffered Saline (DPBS, Thermo-Fisher Scientific, Vienna, Austria, 14190094) containing 0.1% bovine serum albumin (BSA, Roth, Graz, Austria, 8076.2) at a concentration of 10 µg/mL and stored at −20 °C until usage. Three days before the experiments, cell layers and blanks were washed twice on the basolateral compartment with 900 µL cultivation media (DMEM supplemented with 10% Fetal Calf Serum and 1% Penicillin/Streptomycin) to remove anti-inflammatory hydrocortisone residues (a component of media supplement HKGS) and were further cultivated in cultivation media.
# Prior to treating cells with prepared DMEM solutions, TEER was measured in cultivation media DMEM supplemented with 1% Penicillin/Streptomycin and 10% Fetal Calf Serum. Subsequently, cell layers and blanks were washed with DMEM (without supplements) twice on the apical and basolateral compartment, followed by TEER measurements in DMEM. Media of cells were replaced with previously prepared DMEM solutions. Control media was applied on the blanks. After 48 h treatment at 37 °C, 5% CO2 and 95% humidity TEER was measured. Subsequently, 10 µM carboxyfluorescein was added to the apical DMEM solutions and incubated in the incubator at 37 °C for 2 h. Media were immediately collected and measured for the RFU content using the EnSpire as described above. Afterwards, media were stored at −20 °C until further usage. Two cell-grown ThinCerts^TM of each treatment were pooled as one sample with 350 µL lysis buffer supplemented with 1% ß-mercaptoethanol and stored at −80 °C for RNA isolation.
# ECV304 cell monolayers = settings: cited from earlier work
# [6] = Transport study across blank inserts without cells; settings: mean ± SD
# Method: as §3, §5, §6
# [7] = Celexocib study, w/o Inhibitor, mean ± SD
# [8] = with 100 µM verapamil, mean ± SEM
# [9] = without inhibitor, 100 µM apical (CF 10 µM), mean ± SEM
# [10] = Piroxicam study, w/o Inhibitor, mean ± SD
# [11] = with 100 µM probenecid, mean ± SEM
# [12] = Diclofenac study, w/o Inhibitor, mean ± SD
# [13] = Celexocib study, Probenecid, mean ± SD
# [14] = Celexocib study, Verapamil, mean ± SD
# [15] = Diclofenac study, Probenecid, mean ± SD
# [16] = Diclofenac study, Verapamil, mean ± SD
# [17] = Ibuprofen study, Probenecid, mean ± SD
# [18] = Ibuprofen study, Verapamil, mean ± SD
# [19] = Ibuprofen study, w/o Inhibitor, mean ± SD
# [20] = Piroxicam study, Probenecid, mean ± SD
# [21] = Piroxicam study, Verapamil, mean ± SD
molecule,measurement,setting,value
Cc1ccc(-c2cc(C(F)(F)F)nn2-c2ccc(S(N)(=O)=O)cc2)cc1 [celecoxib],Papp A→B at 240 min,"[1]; PC (permeability of cell), Celexocib study, w/o Inhibitor, mean ± SD",0.733 ×10⁻⁶ cm/s
same,Papp A→B at 240 min,"[1]; with probenecid 100 µM, PC (permeability of cell), Celexocib study, Probenecid, mean ± SD",10.1 ×10⁻⁶ cm/s
same,Papp A→B at 240 min,"[1]; with probenecid 100 µM, PE (permeability of cell + blank), Celexocib study, Probenecid, mean ± SD",2.72 ×10⁻⁶ cm/s
same,"Papp A→B at 240 min, 100 µM","[1]; with probenecid 100 µM, permeability coefficient, with 100 µM probenecid, mean ± SEM",21.2 ×10⁻⁶ cm/s
same,Papp A→B at 240 min,"[1]; with verapamil 100 µM, PC (permeability of cell), Celexocib study, Verapamil, mean ± SD",3.5 ×10⁻⁶ cm/s
same,PE (permeability of cell + blank),[2]; [7],0.36 ± 0.15 µm/min
same,Permeability coefficient without inflammation and inhibitor,[2]; mean ± SD,0.44 ± 0.19 µm/min
same,increase of permeability coefficient with probenecid compared to no inhibitor,"[2]; human, 240 min",13.63 fold
same,increase of permeability coefficient with verapamil compared to no inhibitor,"[2]; human, 240 min",4.72 fold
same,cumulated concentration of NSAID in the basolateral compartment,[2]; human,0.0071 ± 0.00032 nmol/mm^2
same,permeability coefficient,[2]; [8],2.10 ± 0.92 µm/min
same,permeability coefficient,[2]; [9],0.44 ± 0.10 µm/min
same,XlogD,[3],4.01
same,inhibitory effect on MRP4 function,MRP4 (ABCC4),weaker in comparison to ibuprofen
CN1C(C(=O)Nc2ccccn2)=C(O)c2ccccc2S1(=O)=O [piroxicam],Papp A→B at 240 min,"[1]; PC (permeability of cell), Piroxicam study, w/o Inhibitor, mean ± SD",8.1 ×10⁻⁶ cm/s
same,Papp A→B at 240 min,"[1]; with probenecid 100 µM, PC (permeability of cell), Piroxicam study, Probenecid, mean ± SD",9.68 ×10⁻⁶ cm/s
same,Papp A→B at 240 min,"[1]; with probenecid 100 µM, PE (permeability of cell + blank), Piroxicam study, Probenecid, mean ± SD",4.52 ×10⁻⁶ cm/s
same,Papp A→B at 240 min,"[1]; with verapamil 100 µM, PC (permeability of cell), Piroxicam study, Verapamil, mean ± SD",10 ×10⁻⁶ cm/s
same,Papp A→B at 240 min,"[1]; with verapamil 100 µM, PE (permeability of cell + blank), Piroxicam study, Verapamil, mean ± SD",5.12 ×10⁻⁶ cm/s
same,PE (permeability of cell + blank),[2]; [10],2.44 ± 0.76 µm/min
same,Permeability coefficient without inflammation and inhibitor,[2]; mean ± SD,4.86 ± 2.41 µm/min
same,increase of permeability coefficient with probenecid compared to no inhibitor,"[2]; human, 240 min",1.19 fold
same,increase of permeability coefficient with verapamil compared to no inhibitor,"[2]; human, 240 min",1.23 fold
same,cumulated concentration of NSAID in the basolateral compartment,[2]; human,0.055 ± 0.016 nmol/mm^2
same,permeability coefficient,[2]; [11],5.81 ± 0.61 µm/min
same,permeability coefficient,[2]; [8],6.00 ± 0.70 µm/min
same,permeability coefficient,[2]; [9],4.86 ± 0.84 µm/min
same,inhibitory effect on MRP4 function,MRP4 (ABCC4),weaker in comparison to ibuprofen
carboxyfluorescein [CF],permeability coefficient,TR146 cell layers [4],14.26 ± 7.14 µm/min
same,permeability coefficient,"[2]; human, 240 min",4.63 ± 0.24 µm/min
same,permeability coefficient for CF,"TR146 cell layers [5]; across cells treated with cytokines 48 h, two hours",16.16 ± 13.05 µm/min
same,permeability coefficient for CF,"TR146 cell layers [5]; across cells treated with cytokines with ibuprofen 48 h, two hours",16.75 ± 9.76 µm/min
same,permeability coefficient for CF,"TR146 cell layers [5]; across cells treated with ibuprofen 48 h, two hours",12.83 ± 3.57 µm/min
same,permeability coefficient for CF,"TR146 cell layers [5]; across control cells, two hours after 48 h",12.41 ± 5.15 µm/min
same,permeability coefficient across ECV304 cell monolayers,ECV304 cell monolayers,~ 5 µm/min
O=C(O)Cc1ccccc1Nc1c(Cl)cccc1Cl [diclofenac],Papp A→B at 240 min,[1]; PC (permeability of cell),11.1 ×10⁻⁶ cm/s
same,Papp A→B at 240 min,[1]; PE (permeability of cell + blank),3.43 ×10⁻⁶ cm/s
same,PE (permeability of cell + blank),[2]; [12],2.11 ± 0.22 µm/min
same,Permeability coefficient without inflammation and inhibitor,[2]; mean ± SD,3.64 ± 0.84 µm/min
same,PE (permeability of cell + blank),"[2]; human, 240 min",2.98 ± 1.37 µm/min
same,increase of permeability coefficient with probenecid compared to no inhibitor,"[2]; human, 240 min",1.83 fold
same,cumulated concentration of NSAID in the basolateral compartment,[2]; human,0.043 ± 0.0046 nmol/mm^2
same,permeability coefficient,[2]; [11],6.66 ± 1.87 µm/min
same,permeability coefficient,[2]; [8],3.54 ± 0.38 µm/min
same,permeability coefficient,[2]; [9],3.64 ± 0.34 µm/min
same,XlogD,[3],1.1
CN1C(=O)CN=C(c2ccccc2)c2cc(Cl)ccc21 [diazepam],PS blank,"[6]; Diclofenac study, Probenecid",0.15 ± 0.03 µL/min
same,PS blank,"[6]; Diclofenac study, Verapamil",0.13 ± 0.03 µL/min
same,PS blank,"[6]; Diclofenac study, w/o Inhibitor",0.17 ± 0.01 µL/min
same,PS blank,"[6]; Ibuprofen study, Probenecid",0.14 ± 0.01 µL/min
same,PS blank,"[6]; Ibuprofen study, Verapamil",0.12 ± 0.06 µL/min
same,PS blank,"[6]; Ibuprofen study, w/o Inhibitor",0.21 ± 0.03 µL/min
same,PS blank,"[6]; Piroxicam study, Probenecid",0.12 ± 0.03 µL/min
same,PS blank,"[6]; Piroxicam study, Verapamil",0.09 ± 0.02 µL/min
same,PS blank,"[6]; Piroxicam study, w/o Inhibitor",0.19 ± 0.02 µL/min
same,PS blank,"[6]; study, Probenecid",0.20 ± 0.004 µL/min
same,PS blank,"[6]; study, Verapamil",0.13 ± 0.05 µL/min
same,PS blank,"[6]; study, w/o Inhibitor",0.18 ± 0.003 µL/min
same,PS all (cell + blank),[2]; [13],0.14 ± 0.004 µL/min
same,PS cell,[2]; [13],0.46 ± 0.04 µL/min
same,PS all (cell + blank),[2]; [14],0.09 ± 0.05 µL/min
same,PS cell,[2]; [14],0.41 ± 0.35 µL/min
same,PS all (cell + blank),[2]; [7],0.11 ± 0.02 µL/min
same,PS cell,[2]; [7],0.38 ± 0.19 µL/min
same,PS all (cell + blank),[2]; [15],0.12 ± 0.01 µL/min
same,PS cell,[2]; [15],0.57 ± 0.21 µL/min
same,PS all (cell + blank),[2]; [16],0.1 ± 0.03 µL/min
same,PS cell,[2]; [16],0.68 ± 0.69 µL/min
same,PS all (cell + blank),[2]; [12],0.11 ± 0.03 µL/min
same,PS cell,[2]; [12],0.44 ± 0.35 µL/min
same,PS all (cell + blank),[2]; [17],0.09 ± 0.02 µL/min
same,PS cell,[2]; [17],0.29 ± 0.16 µL/min
same,PS all (cell + blank),[2]; [18],0.08 ± 0.02 µL/min
same,PS cell,[2]; [18],0.39 ± 0.35 µL/min
same,PS all (cell + blank),[2]; [19],0.12 ± 0.02 µL/min
same,PS cell,[2]; [19],0.31 ± 0.08 µL/min
same,PS all (cell + blank),[2]; [20],0.1 ± 0.01 µL/min
same,PS cell,[2]; [20],0.32 ± 0.14 µL/min
same,PS all (cell + blank),[2]; [21],0.05 ± 0.03 µL/min
same,PS cell,[2]; [21],0.24 ± 0.36 µL/min
same,PS all (cell + blank),[2]; [10],0.12 ± 0.04 µL/min
same,PS cell,[2]; [10],0.45 ± 0.24 µL/min
